Assays:
[1] = system: Human platelet aggregation caused by ADP; test: Inhibition of ADP-induced platelet aggregation (Mimic-human PRP); format: cell-based; conditions: 20 μM ADP, human platelet concentrate diluted with PPP, absorption at 595 nm
Outline: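 Ki came from non-linear sigmoidal fits of inhibition, measured as the 3-min rise in absorbance at 595 nm after 20 μM ADP, relative to 0/20 μM ADP controls. Platelets (3–4×10^8/mL in PPP-diluted human PRP) were exposed to 0.01–30 μM compound for 20 min at room temperature beforehand.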

Human P2Y12 receptor = molecular target: T1, Human P2Y12 receptor (Homo sapiens, UniProt Q9H244); test: Human P2Y12 receptor cell membrane binding assay with [3H] 2-Mes-ADP; conditions: 1 nM [3H] 2-Mes-ADP, membranes of HEK cells expressing P2Y12 receptor; read-out: Binding activity (IC50)
T1 construct: expressed in transfected cells; host or cells: HEK cells
Outline: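 Competition binding used 1 nM [3H]2-MeS-ADP on P2Y12-expressing HEK cell membranes for 1 h at room temperature, followed by filtration and scintillation counting.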

T1 sequence (Q9H244 whole entry): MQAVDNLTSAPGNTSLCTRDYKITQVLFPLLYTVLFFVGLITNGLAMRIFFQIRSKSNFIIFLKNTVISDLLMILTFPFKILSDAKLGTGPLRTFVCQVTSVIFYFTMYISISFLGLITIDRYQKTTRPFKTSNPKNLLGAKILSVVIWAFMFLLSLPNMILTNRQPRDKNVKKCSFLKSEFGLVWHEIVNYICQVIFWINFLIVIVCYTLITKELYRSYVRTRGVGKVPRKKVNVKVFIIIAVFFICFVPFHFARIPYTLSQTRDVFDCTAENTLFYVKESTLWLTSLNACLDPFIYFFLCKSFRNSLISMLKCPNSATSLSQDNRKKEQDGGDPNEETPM

SMILES	Ki [1] [nM]	IC50 (Human P2Y12 receptor) [nM]
CCCc1cc2c(N3CCn4c(nnc4C(F)(F)F)C3)nc(OC3CCCC3)nc2s1 [Example 3-15, 7-(2-Cyclopentyloxy-6-propyl-thieno[2,3-d]pyrimidin-4-yl)-3-trifluoromethyl-5,6,7,8-tetrahydro-[1,2,4]triazolo[4,3-a]pyrazine]	300	53
CCCc1cc2c(N3CCn4c(nnc4C(F)(F)F)C3)nc(OCc3ccccc3)nc2s1 [Example 3-16, 7-(2-Benzyloxy-6-propyl-thieno[2,3-d]pyrimidin-4-yl)-3-trifluoromethyl-5,6,7,8-tetrahydro-[1,2,4]triazolo[4,3-a]pyrazine]	27600	39
CCCCOc1nc(N2CCn3c(nnc3C(F)(F)F)C2)c2cc(CCC)sc2n1 [Example 3-17, 7-(2-Butoxy-6-propyl-thieno[2,3-d]pyrimidin-4-yl)-3-trifluoromethyl-5,6,7,8-tetrahydro-[1,2,4]triazolo[4,3-a]pyrazine]	3200	110
CCCc1cc2c(N3CCn4c(nnc4C(F)(F)F)C3)nc(OCc3nc(CC(=O)OCC)co3)nc2s1 [Example 3-18, {2-[6-Propyl-4-(3-trifluoromethyl-5,6-dihydro-8H-[1,2,4]triazolo[4,3-a]pyrazin-7-yl)-thieno[2,3-d]pyrimidin-2-yloxymethyl]-oxazol-4-yl}-acetic acid ethyl ester]	4300	400
CCCc1cc2c(N3CCn4c(nnc4C(F)(F)F)C3)nc(OCc3nc(CC(=O)O)co3)nc2s1 [Example 3-19, {2-[6-Propyl-4-(3-trifluoromethyl-5,6-dihydro-8H-[1,2,4]triazolo[4,3-a]pyrazin-7-yl)-thieno[2,3-d]pyrimidin-2-yloxymethyl]-oxazol-4-yl}-acetic acid]	> 4000	170
CCCc1cc2c(N3CCn4c(nnc4C(F)(F)F)C3)nc(OCc3cocn3)nc2s1 [Example 3-20, 7-[2-(Oxazol-4-ylmethoxy)-6-propyl-thieno[2,3-d]pyrimidin-4-yl]-3-trifluoromethyl-5,6,7,8-tetrahydro-[1,2,4]triazolo[4,3-a]pyrazine]	840	84
CCCc1cc2c(N3CCn4c(nnc4C(F)(F)F)C3)nc(OCCc3cc(F)cc(F)c3F)nc2s1 [Example 3-21, 7-{6-Propyl-2-[2-(2,3,5-trifluoro-phenyl)-ethoxy]-thieno[2,3-d]pyrimidin-4-yl}-3-trifluoromethyl-5,6,7,8-tetrahydro-[1,2,4]triazolo[4,3-a]pyrazine]	390	110
CCCc1cc2c(N3CCn4c(nnc4C(F)(F)F)C3)nc(OCc3ccccn3)nc2s1 [Example 3-23, 7-[6-Propyl-2-(pyridin-2-ylmethoxy)-thieno[2,3-d]pyrimidin-4-yl]-3-trifluoromethyl-5,6,7,8-tetrahydro-[1,2,4]triazolo[4,3-a]pyrazine]	> 4000	370
CCCc1cc2c(N3CCn4c(nnc4C(F)(F)F)C3)nc(OCc3cccnc3)nc2s1 [Example 3-24, 7-[6-Propyl-2-(pyridin-3-ylmethoxy)-thieno[2,3-d]pyrimidin-4-yl]-3-trifluoromethyl-5,6,7,8-tetrahydro-[1,2,4]triazolo[4,3-a]pyrazine]	1480	160
CCCc1cc2c(N3CCn4c(nnc4C(F)(F)F)C3)nc(OCc3ccncc3)nc2s1 [Example 3-25, 7-[6-Propyl-2-(pyridin-4-ylmethoxy)-thieno[2,3-d]pyrimidin-4-yl]-3-trifluoromethyl-5,6,7,8-tetrahydro-[1,2,4]triazolo[4,3-a]pyrazine]	930	170
CCCc1cc2c(N3CCn4c(nnc4C(F)(F)F)C3)nc(OC3CNC3)nc2s1 [Example 3-26, 7-[2-(Azetidin-3-yloxy)-6-propyl-thieno[2,3-d]pyrimidin-4-yl]-3-trifluoromethyl-5,6,7,8-tetrahydro-[1,2,4]triazolo[4,3-a]pyrazine]	25	149
CCCc1cc2c(N3CCn4c(nnc4C(F)(F)F)C3)nc(O)nc2s1 [Example 3-27, 6-Propyl-4-(3-trifluoromethyl-5,6-dihydro-8H-[1,2,4]triazolo[4,3-a]pyrazin-7-yl)-thieno[2,3-d]pyrimidin-2-ol]	8800	5380
CCCc1cc2c(N3CCn4c(nnc4C(F)(F)F)C3)nc(Oc3ccccc3)nc2s1 [Example 3-28, 7-(2-Phenoxy-6-propyl-thieno[2,3-d]pyrimidin-4-yl)-3-trifluoromethyl-5,6,7,8-tetrahydro-[1,2,4]triazolo[4,3-a]pyrazine]	9700	179
CCCc1cc2c(N3CCn4c(nnc4C(F)(F)F)C3)nc(Oc3cccnc3)nc2s1 [Example 3-29, 7-[6-Propyl-2-(pyridin-3-yloxy)-thieno[2,3-d]pyrimidin-4-yl]-3-trifluoromethyl-5,6,7,8-tetrahydro-[1,2,4]triazolo[4,3-a]pyrazine]	150	220
CCCc1cc2c(N3CCn4c(nnc4C(F)(F)F)C3)nc(Oc3cccc(C(=O)OC)c3)nc2s1 [Example 3-30, 3-[6-Propyl-4-(3-trifluoromethyl-5,6-dihydro-8H-[1,2,4]triazolo[4,3-a]pyrazin-7-yl)-thieno[2,3-d]pyrimidin-2-yloxy]-benzoic acid methyl ester]	> 4000	280
CCCc1cc2c(N3CCn4c(nnc4C(F)(F)F)C3)nc(Oc3cccc(C(=O)O)c3)nc2s1 [Example 3-31, 3-[6-Propyl-4-(3-trifluoromethyl-5,6-dihydro-8H-[1,2,4]triazolo[4,3-a]pyrazin-7-yl)-thieno[2,3-d]pyrimidin-2-yloxy]-benzoic acid]	2000	196
CCCc1cc2c(N3CCn4c(nnc4C(F)(F)F)C3)nc(Oc3ccccc3C(=O)OC)nc2s1 [Example 3-32, 2-[6-Propyl-4-(3-trifluoromethyl-5,6-dihydro-8H-[1,2,4]triazolo[4,3-a]pyrazin-7-yl)-thieno[2,3-d]pyrimidin-2-yloxy]-benzoic acid methyl ester]	> 4000	650
CCCc1cc2c(N3CCn4c(nnc4C(F)(F)F)C3)nc(Oc3ccccc3C(=O)O)nc2s1 [Example 3-33, 2-[6-Propyl-4-(3-trifluoromethyl-5,6-dihydro-8H-[1,2,4]triazolo[4,3-a]pyrazin-7-yl)-thieno[2,3-d]pyrimidin-2-yloxy]-benzoic acid]	> 4000	2220
CCCc1cc2c(N3CCn4c(nnc4C(F)(F)F)C3)nc(Oc3ccc(C(=O)OC)cc3)nc2s1 [Example 3-34, 4-[6-Propyl-4-(3-trifluoromethyl-5,6-dihydro-8H-[1,2,4]triazolo[4,3-a]pyrazin-7-yl)-thieno[2,3-d]pyrimidin-2-yloxy]-benzoic acid methyl ester]	> 4000	473
CCCc1cc2c(N3CCn4c(nnc4C(F)(F)F)C3)nc(Oc3ccc(C(=O)O)cc3)nc2s1 [Example 3-35, 4-[6-Propyl-4-(3-trifluoromethyl-5,6-dihydro-8H-[1,2,4]triazolo[4,3-a]pyrazin-7-yl)-thieno[2,3-d]pyrimidin-2-yloxy]-benzoic acid]	1400	99
